Test results as given in patent publication US20160174533A1 (priority 2009, published 2016).
Read-outs that look alike come from different tables or passages of the source.

Assays:
androgen receptors (AR) = biological target: T1, androgen receptors (AR) (Homo sapiens, UniProt P10275); details: cited from earlier work
T1 construct: expressed in transfected cells
T1 sequence (P10275 1-920): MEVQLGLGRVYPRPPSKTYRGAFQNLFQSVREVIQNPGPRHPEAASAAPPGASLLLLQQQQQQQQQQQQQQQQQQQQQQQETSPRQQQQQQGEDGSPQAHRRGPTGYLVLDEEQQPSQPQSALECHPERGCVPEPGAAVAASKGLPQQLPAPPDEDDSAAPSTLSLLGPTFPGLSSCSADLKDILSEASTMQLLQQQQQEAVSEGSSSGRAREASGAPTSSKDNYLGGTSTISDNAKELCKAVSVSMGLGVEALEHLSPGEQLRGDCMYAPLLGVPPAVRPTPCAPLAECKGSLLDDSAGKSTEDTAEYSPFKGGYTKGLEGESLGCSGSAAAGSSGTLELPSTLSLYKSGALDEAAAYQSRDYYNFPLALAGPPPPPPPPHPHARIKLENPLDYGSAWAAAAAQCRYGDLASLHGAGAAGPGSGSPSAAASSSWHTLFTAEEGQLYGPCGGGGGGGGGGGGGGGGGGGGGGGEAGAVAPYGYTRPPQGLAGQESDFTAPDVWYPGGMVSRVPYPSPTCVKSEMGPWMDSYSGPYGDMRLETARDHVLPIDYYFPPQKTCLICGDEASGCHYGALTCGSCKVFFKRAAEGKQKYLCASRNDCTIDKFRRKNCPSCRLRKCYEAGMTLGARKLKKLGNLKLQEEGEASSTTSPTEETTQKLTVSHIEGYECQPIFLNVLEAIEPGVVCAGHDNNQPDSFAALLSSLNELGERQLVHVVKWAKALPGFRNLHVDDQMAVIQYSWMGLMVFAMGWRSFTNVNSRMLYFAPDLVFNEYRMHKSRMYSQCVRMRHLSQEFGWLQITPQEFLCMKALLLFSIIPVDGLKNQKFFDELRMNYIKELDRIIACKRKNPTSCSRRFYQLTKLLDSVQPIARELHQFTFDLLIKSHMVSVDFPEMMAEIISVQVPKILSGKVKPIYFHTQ

ER-alpha = biological target: T2, ER-alpha (Homo sapiens, UniProt P03372); details: cited from earlier work
T2 construct: expressed in transfected cells

ER-beta = biological target: T3, ER-beta (Homo sapiens, UniProt Q92731); details: cited from earlier work
T3 construct: expressed in transfected cells

Cyp1a2 [1] = biological target: T4, Cyp1a2 (Homo sapiens, UniProt P05177); details: human populations; cited from earlier work
T4 sequence (P05177 1-516): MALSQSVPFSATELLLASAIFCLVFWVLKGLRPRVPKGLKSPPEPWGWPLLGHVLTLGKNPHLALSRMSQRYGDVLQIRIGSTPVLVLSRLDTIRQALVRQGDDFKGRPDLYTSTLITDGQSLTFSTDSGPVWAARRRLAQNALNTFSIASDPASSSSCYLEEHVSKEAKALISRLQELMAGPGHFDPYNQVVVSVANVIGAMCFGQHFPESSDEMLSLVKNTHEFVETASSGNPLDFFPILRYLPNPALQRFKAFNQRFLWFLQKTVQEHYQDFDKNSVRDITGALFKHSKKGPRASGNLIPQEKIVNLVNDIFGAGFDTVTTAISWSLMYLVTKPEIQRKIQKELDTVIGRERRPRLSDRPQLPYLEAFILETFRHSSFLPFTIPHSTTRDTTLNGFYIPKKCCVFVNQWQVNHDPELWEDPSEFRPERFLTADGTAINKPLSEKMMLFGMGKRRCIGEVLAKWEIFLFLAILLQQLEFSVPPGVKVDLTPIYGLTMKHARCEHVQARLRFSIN

Cyp7b1 [2] = details: liver and kidney of Cyp7b-/- mice; cited from earlier work
Cyp7b1 [3] = assay: DHEA metabolism in Cyp7b1 KO rats (transposon insertion)
Cyp1a2 [4] = biological target: T5, Cyp1a2 (Mus musculus, UniProt P00186); details: WT mice; cited from earlier work
T5 sequence (P00186 2-513): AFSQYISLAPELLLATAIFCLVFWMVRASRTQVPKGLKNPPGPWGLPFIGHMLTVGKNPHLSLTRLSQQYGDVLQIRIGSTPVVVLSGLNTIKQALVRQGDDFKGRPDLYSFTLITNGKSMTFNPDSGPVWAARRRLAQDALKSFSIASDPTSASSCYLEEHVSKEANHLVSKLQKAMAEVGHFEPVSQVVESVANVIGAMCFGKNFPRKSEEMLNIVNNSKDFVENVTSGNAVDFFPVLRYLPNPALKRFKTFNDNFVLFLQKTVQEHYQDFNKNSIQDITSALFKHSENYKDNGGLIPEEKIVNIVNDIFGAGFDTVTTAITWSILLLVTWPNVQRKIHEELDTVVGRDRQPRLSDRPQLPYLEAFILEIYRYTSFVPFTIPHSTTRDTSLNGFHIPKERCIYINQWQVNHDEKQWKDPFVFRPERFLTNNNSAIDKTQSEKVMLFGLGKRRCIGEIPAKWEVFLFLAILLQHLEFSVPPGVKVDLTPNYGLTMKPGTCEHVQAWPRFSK

Cyp1a2 [5] = details: Cyp1a2-/- mice; cited from earlier work
Cyp2e1 [6] = biological target: Cyp2e1 (Mus musculus, UniProt Q05421); details: mouse, in vivo, 400 mg/kg; cited from earlier work
Cyp2e1 [7] = details: Cyp2e1-/- mice; cited from earlier work
Cyp3a [8] = details: cited from earlier work
Cyp3a [9] = details: cited from earlier work; remark: listed apart in the source

T2 sequence (P03372 whole entry): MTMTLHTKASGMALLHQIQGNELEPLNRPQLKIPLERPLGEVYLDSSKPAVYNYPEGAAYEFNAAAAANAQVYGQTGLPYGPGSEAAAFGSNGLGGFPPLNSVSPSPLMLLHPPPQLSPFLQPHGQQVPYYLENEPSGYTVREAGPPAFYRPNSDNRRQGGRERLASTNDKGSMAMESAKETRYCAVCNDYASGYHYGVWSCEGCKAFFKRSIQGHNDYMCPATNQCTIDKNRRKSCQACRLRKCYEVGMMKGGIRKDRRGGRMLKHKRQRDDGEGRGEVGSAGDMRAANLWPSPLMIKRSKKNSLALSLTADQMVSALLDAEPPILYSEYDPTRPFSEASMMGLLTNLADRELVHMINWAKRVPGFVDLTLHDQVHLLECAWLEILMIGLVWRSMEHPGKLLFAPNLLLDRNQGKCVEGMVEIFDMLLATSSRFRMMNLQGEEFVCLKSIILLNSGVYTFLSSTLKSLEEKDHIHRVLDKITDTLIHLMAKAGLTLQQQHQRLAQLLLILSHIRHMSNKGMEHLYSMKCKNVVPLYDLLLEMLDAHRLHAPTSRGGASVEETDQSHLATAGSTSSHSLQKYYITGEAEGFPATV
Sequence of Cyp2e1 (Mus musculus, UniProt Q05421) (Q05421 whole entry): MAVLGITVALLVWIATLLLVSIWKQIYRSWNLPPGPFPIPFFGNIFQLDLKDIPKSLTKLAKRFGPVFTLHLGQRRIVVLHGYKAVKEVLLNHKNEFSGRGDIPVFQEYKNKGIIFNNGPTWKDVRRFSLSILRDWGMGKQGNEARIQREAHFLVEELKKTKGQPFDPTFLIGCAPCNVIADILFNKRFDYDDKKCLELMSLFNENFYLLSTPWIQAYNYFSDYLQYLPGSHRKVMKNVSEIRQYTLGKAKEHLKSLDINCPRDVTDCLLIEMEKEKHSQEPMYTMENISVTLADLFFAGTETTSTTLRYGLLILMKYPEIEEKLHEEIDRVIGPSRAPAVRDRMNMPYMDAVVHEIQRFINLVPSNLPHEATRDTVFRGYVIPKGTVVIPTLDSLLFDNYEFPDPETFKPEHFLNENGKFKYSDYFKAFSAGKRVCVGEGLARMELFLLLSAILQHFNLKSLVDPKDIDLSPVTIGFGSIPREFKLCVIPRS
T3 sequence (Q92731 whole entry): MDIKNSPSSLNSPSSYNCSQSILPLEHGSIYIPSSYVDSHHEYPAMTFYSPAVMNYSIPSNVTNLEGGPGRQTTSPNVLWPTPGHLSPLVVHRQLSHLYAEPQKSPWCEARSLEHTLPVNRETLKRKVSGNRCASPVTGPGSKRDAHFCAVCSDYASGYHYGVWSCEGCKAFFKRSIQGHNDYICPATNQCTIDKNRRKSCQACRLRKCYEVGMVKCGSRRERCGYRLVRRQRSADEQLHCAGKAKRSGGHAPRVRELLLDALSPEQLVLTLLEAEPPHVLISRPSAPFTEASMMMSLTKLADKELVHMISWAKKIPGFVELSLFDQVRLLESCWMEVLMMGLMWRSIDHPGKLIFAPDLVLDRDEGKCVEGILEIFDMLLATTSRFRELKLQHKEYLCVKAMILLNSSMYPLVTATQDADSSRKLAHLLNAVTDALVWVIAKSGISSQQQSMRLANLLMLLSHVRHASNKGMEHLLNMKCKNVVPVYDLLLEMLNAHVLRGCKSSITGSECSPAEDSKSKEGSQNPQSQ

In the case of `C[C@]12CC[C@H](O)CC1=C[C@@H](O)[C@@H]1[C@@H]2CC[C@]2(C)C(=O)CC[C@@H]12` [7-alpha-hydroxy-DHEA], the receptor activation (androgen receptors (AR)) is given as “activates”, the receptor activation (ER-alpha) is given as “activates” and the receptor activation (ER-beta) is given as “activates”.

For `Cn1c(=O)c2c(ncn2C)n(C)c1=O` [Caffeine], the half-life (Cyp1a2 [1]) is listed as 1.5 to 9.5 h.

In the case of `C[C@]12CC[C@H](O)CC1=CC[C@@H]1[C@@H]2CC[C@]2(C)C(=O)CC[C@@H]12` [DHEA, dehydroepiandrosterone], the “DHEA conversion to 7D” value (Cyp7b1 [2]) is given as “significantly altered” and the “metabolism of DHEA to 7α-hydroxy-DHEA” value (Cyp7b1 [3]) is given as “unable to metabolize”.

In the case of `Clc1cc2c(cc1Cl)Oc1cc(Cl)c(Cl)cc1O2` [TCDD, 2,3,7,8-Tetrachlorodibenzo-p-dioxin], the “liver-to-adipose (L/F) ratio” value (Cyp1a2 [4]) is given as 3.6 and the “liver-to-adipose (L/F) ratio” value (Cyp1a2 [5]) is given as 0.2.

In the case of `CC(=O)Nc1ccc(O)cc1` [acetaminophen], the “mice that succumb to toxicity and die” value (Cyp2e1 [6]) is listed as “over 50%” and the dose survived (Cyp2e1 [7]) is listed as “up to 400 mg/kg”.

In the case of `CC(=O)O[C@@]12CO[C@@H]1C[C@H](O)[C@@]1(C)C(=O)[C@H](O)C3=C(C)[C@@H](OC(=O)[C@H](O)[C@@H](NC(=O)OC(C)(C)C)c4ccccc4)C[C@@](O)([C@@H](OC(=O)c4ccccc4)[C@H]21)C3(C)C` [docetaxel], the oral bioavailability (Cyp3a [8]; Cyp3a-/- mice) is listed as 21.2%, the oral bioavailability (Cyp3a [8]; WT mice) is listed as 8.1% and the “plasma docetaxel, Cyp3a-/- versus WT mice” value (Cyp3a [8]; after i.v. administration) is listed as 6.8 fold. The “plasma level of docetaxel, Cyp3a-/- versus WT mice” value (Cyp3a [8]; after oral administration) was 17.7 fold, the “docetaxel metabolism (KO phenotype)” value (Cyp3a [8]; mice deficient for gene family Cyp3a) was “function are unable to metabolize docetaxel” and the M-2 metabolite formation (Cyp3a [9]; Cyp3a-/- microsomes) was “not recognized”. For the same compound, the M-2 metabolite formation (Cyp3a [9]; WT microsomes) was “efficiently formed”.
